According to patent publication US20130040036A1, “Shelf Stable, Low Water Liquid Beverage Concentrates And Methods Of Making The Same” (priority 2011, published 2013):

Test: Solubility of sucralose in non-aqueous liquids
Assay type: physicochemical
Conditions: 1,3-propanediol vs propylene glycol
Excerpt: Therefore, beverage concentrates containing sucralose may be advantageously prepared using a solvent comprising 1,3-propanediol to provide a beverage concentrate that is able to maintain sucralose in solution throughout its shelf life. In other instances, selection of NAL may also depend, at least in part, on the flavor provided by the NAL and the desired taste profile in the final beverage. In yet other instances, selection of NAL may also depend, at least in part, on the viscosity and/or the desired density of the resulting concentrate.

## OC[C@H]1O[C@H](O[C@]2(CCl)O[C@H](CCl)[C@@H](O)[C@@H]2O)[C@H](O)[C@@H](O)[C@H]1Cl [sucralose]
  solubility in non-aqueous liquid: more readily solubilized in 1,3-propanediol than in propylene glycol
